In ChEMBL document CHEMBL1148680 (Bioorg Med Chem Lett, 2006):

Assays:
[1] = biological target: C-C chemokine receptor type 5 (Homo sapiens, UniProt P51681); assay: Inhibition of [125I]MIP-1beta binding to CCR5 expressed in HEK293 cells; type: cell-based
hERG (KCNH2) [2] = biological target: T1, hERG (KCNH2) (Homo sapiens, UniProt Q12809); assay: Inhibition of [3H]dofetilide binding to HERG expressed in HEK293 cells at 300 nM; type: cell-based; conditions: HEK293 cells that express hERG, probe [3H]dofetilide
[3] = Dissociation constant, pKa of the compound; type: physicochemical
hERG (KCNH2) [4] = biological target: T1, hERG (KCNH2); assay: Inhibition of [3H]dofetilide binding to HERG expressed in HEK293 cells at 100 nM; type: cell-based; conditions: HEK293 cells that express hERG, probe [3H]dofetilide
[5] = test system: Human immunodeficiency virus; assay: Antiviral activity against HIV BaL in PM1 cell; type: functional; conditions: Human immunodeficiency virus 1, BaL
[6] = Distribution coefficient, log D of the compound; type: physicochemical; conditions: octanol/water
[7] = biological target: Voltage-gated inwardly rectifying potassium channel KCNH2 (Homo sapiens, UniProt Q12809); assay: Inhibition of [3H]dofetilide binding to HERG expressed in HEK293 cells; type: cell-based
Chain of Voltage-gated inwardly rectifying potassium channel KCNH2 (Q12809 whole entry): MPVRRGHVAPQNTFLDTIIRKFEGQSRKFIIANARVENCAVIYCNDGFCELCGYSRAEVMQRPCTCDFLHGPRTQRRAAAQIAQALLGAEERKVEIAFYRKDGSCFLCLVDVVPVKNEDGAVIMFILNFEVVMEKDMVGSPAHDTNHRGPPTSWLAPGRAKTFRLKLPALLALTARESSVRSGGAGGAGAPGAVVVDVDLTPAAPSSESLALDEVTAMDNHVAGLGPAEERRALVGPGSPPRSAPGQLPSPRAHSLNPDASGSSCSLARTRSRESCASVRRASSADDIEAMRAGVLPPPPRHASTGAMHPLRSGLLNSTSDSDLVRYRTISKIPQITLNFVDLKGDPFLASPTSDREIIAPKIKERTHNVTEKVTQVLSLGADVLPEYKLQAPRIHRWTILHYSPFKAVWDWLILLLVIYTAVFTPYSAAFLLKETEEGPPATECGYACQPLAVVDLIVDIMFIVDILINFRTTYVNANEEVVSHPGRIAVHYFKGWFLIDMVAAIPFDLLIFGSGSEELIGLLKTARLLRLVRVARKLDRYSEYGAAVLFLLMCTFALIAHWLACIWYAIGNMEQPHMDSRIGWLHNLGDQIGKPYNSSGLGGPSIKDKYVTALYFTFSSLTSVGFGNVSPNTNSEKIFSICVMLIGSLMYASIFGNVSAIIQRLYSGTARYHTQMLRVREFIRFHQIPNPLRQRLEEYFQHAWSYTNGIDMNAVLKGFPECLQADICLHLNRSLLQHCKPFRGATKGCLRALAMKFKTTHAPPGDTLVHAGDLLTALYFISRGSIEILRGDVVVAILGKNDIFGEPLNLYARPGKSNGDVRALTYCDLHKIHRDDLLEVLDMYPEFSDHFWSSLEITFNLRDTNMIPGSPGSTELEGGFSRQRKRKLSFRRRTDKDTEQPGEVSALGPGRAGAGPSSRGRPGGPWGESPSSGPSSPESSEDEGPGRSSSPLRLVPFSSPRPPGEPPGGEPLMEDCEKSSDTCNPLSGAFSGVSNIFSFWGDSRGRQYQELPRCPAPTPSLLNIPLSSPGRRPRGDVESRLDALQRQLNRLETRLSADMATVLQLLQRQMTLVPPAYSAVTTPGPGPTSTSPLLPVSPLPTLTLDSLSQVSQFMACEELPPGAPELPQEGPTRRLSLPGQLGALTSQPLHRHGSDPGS

T1 sequence (Q12809 whole entry): as above
Chain of C-C chemokine receptor type 5 (P51681 whole entry): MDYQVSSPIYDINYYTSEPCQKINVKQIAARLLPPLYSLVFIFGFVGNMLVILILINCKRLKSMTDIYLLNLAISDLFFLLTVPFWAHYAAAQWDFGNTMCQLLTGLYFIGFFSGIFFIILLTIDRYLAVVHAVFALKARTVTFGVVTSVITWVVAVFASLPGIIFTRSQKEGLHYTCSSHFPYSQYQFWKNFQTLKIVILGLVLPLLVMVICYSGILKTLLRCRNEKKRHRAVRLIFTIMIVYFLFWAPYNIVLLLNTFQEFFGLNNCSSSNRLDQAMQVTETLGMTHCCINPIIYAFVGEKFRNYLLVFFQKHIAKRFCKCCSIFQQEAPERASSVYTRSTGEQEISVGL

O=C(N[C@@H](CCN1CCC(n2cnc(Cc3ccccc3)n2)CC1)c1ccccc1)C1CCC1
IC50 [1]: 0.005 µM

Cc1nc2ccccc2n1C1CC2CCC(C1)N2CC[C@H](NC(=O)C1CCC1)c1ccccc1 (stereo partly drawn)
inhibition at 0.3 µM (hERG (KCNH2) [2]): 80%
pKa [3]: 7.8

Cc1nc(C2CCN(CC[C@H](NC(=O)C3CCC3)c3ccccc3)CC2)no1
IC50 [1]: 0.07 µM

O=C(N[C@@H](CCN1CCC(c2noc(Cc3ccccc3)n2)CC1)c1ccccc1)C1CCC1
inhibition at 0.1 µM (hERG (KCNH2) [4]): 50%
IC50 [1]: 0.02 µM

Cc1nnc(C)n1C1CCN(CC[C@H](NC(=O)C2CCC2)c2ccccc2)CC1
inhibition at 0.1 µM (hERG (KCNH2) [4]): 5%
IC50 [1]: 0.05 µM

Cc1nnc(C(C)C)n1C1CC2CCC(C1)N2CC[C@H](NC(=O)C1CCCC1)c1ccccc1 (stereo partly drawn)
IC90 [5]: 0.002 µM
logD [6]: 2.1
inhibition at 0.3 µM (hERG (KCNH2) [2]): 18%

Cc1nc2ccccc2n1C1CC2COCC(C1)N2CC[C@H](NC(=O)C1CCC1)c1ccccc1 (stereo partly drawn) [OXOGRANATANE]
IC50 [1]: 0.039 µM
inhibition at 0.3 µM (hERG (KCNH2) [2]): 70%
pKa [3]: 6

Cc1nnc(C(C)C)n1C1CC2CCC(C1)N2CC[C@H](NC(=O)C1CCC1)c1ccccc1 (stereo partly drawn)
inhibition at 0.1 µM (hERG (KCNH2) [4]): 14%
IC90 [5]: 0.008 µM
logD [6]: 1.6
inhibition at 0.3 µM (hERG (KCNH2) [2]): 30%

CC(=O)N(CCOc1ccc(NS(C)(=O)=O)cc1)CCc1ccc(NS(C)(=O)=O)cc1
Activity [7]: 0.021 µM

Cc1nnc(C(C)C)n1C1CC2CCC(C1)N2CC[C@H](NC(=O)CCC(F)(F)F)c1ccccc1 (stereo partly drawn)
IC90 [5]: 0.014 µM
logD [6]: 1.8
inhibition at 0.3 µM (hERG (KCNH2) [2]): 14%

Cc1nnc(Cc2ccccc2)n1C1CCN(CC[C@H](NC(=O)C2CCC2)c2ccccc2)CC1
IC50 [1]: 0.25 µM

Cc1nnc(C(C)C)n1[C@H]1C[C@H]2CC[C@@H](C1)N2CC[C@H](NC(=O)C1CCC(F)(F)CC1)c1ccccc1 [MARAVIROC]
IC90 [5]: 0.002 µM

Cc1nnc(C)n1C1CC2CCC(C1)N2CC[C@H](NC(=O)C1CCC1)c1ccccc1 (stereo partly drawn)
inhibition at 0.1 µM (hERG (KCNH2) [4]): 10%
IC90 [5]: 0.013 µM

Cc1nnc(C(C)C)n1[C@@H]1C[C@H]2CC[C@@H](C1)N2CC[C@H](NC(=O)C1CCC(F)(F)CC1)c1ccccc1 [MARAVIROC]
logD [6]: 2.1

O=C(Cc1ccc(F)cc1)NC1CCN(CC[C@H](NC(=O)C2CCC2)c2ccccc2)CC1
IC50 [1]: 0.0007 µM
